Measurements reported in publication PMC5577134 (Nature Communications, 2017).
Converted amounts (≈) assume the structure as drawn. Where two headings read alike, the source gives them in different places. Marks after values point to notes of the source that are not given here. *1 amine or outer side, *2 acyl side, *3 side chain or, on linkers, in order; H or OH if unused. Where a SMILES comes first, the peptide text is derived from it. [ ]: non-standard residue; d: D form. ξ: configuration not given here. Trp(1-(1,1-Me2-allyl)) = C=CC(C)(C)n1cc(C[C@H](N)C(=O)O)c2ccccc21; Tyr(3-NO2) = N[CH](Cc1ccc(O)c([N+](=O)[O-])c1)C(=O)O; X1 = CC(C)(C1CO1)n1cc(CC(N[*:1])C(=O)[*:2])c2ccccc21; Gly(E-crotyl) = C/C=C/C[C@H](N)C(=O)O; ξNle(4,5-dehydro) = CC=CCC(N)C(=O)O; NMeL = CN[CH](CC(C)C)C(=O)O

How the values were obtained:
[1] = tested on: Acinetobacter baumanii ATCC19606; assay: Antibacterial broth dilution MIC; assay type: cell-based
Method: (§1) To determine the antibacterial activities of these eight compounds (1–8), a preliminary screening of their antibacterial activities against a panel of Gram-positive and Gram-negative bacteria[6]–[8], M. smegmatis MC^2 155 and M. tuberculosis H37Rv, was conducted using a broth dilution method, [59]. Compounds 1–8 were dissolved in dimethylsulfoxide (DMSO) to give 3200 μg mL^−1 stock solutions. The stock solutions were then serially diluted to concentrations of 0.0625–128 μg mL^−1 with MH broth or 7H9 broth (added with 0.2% glycerol, 0.05% Tween 80). DMSO in MH broth or 7H9 broth was used as a negative control, and broth-containing bacteria was used as positive control. All experiments were performed in triplicate with kanamycin and rifampicin as control agents.

[2] = tested on: Staphylococcus aureus ATCC29213; assay: Antibacterial broth dilution MIC; assay type: cell-based
Method: as §1

[3] = tested on: Enterococcus faecalis ATCC29212; assay: Antibacterial broth dilution MIC; assay type: cell-based
Method: as §1

[4] = tested on: Escherichia coli ATCC 25922; assay: Antibacterial broth dilution MIC; assay type: cell-based
Method: as §1

Micrococcus luteus SC-1 = assay: Antibacterial broth dilution MIC; assay type: cell-based
Method: as §1

[5] = tested on: A549, human lung cancer cell line; assay: MTT cytotoxicity; assay type: cell-based; conditions: Homo sapiens
Method: (§2) Compounds 1–8 were evaluated for cytotoxicity using HeLa, HepG2, A549, CNE2, and MCF7 cell lines using a previously reported MTT method. The L02 and Huvec-12 cell lines were used as normal cell line controls. All these cell lines were obtained from American Type Culture Collection (ATCC) and cultured according to ATCC recommendations. Cell lines were checked for mycoplasma and profiled via short tandem repeat profiling to confirm their identity by the supplier. All experiments were performed in triplicate with doxorubicin and cis-platinum as control agents.

[6] = tested on: MCF7, human breast adenocarcinoma cell line; assay: MTT cytotoxicity; assay type: cell-based; conditions: Homo sapiens
Method: as §2

[7] = tested on: HeLa, human cervical carcinoma cell line; assay: MTT cytotoxicity; assay type: cell-based; conditions: Homo sapiens
Method: as §2

[8] = tested on: HepG2, human hepatocellular carcinoma cell line; assay: MTT cytotoxicity; assay type: cell-based; conditions: Homo sapiens
Method: as §2

[9] = tested on: CNE2, human nasopharyngeal carcinoma cell line; assay: MTT cytotoxicity; assay type: cell-based; conditions: Homo sapiens, CNE-2
Method: as §2

MRSA shha-01 = assay: microbe, parasite or virus in culture; assay type: cell-based; conditions: Staphylococcus aureus
M. smegmatis MC^2 155 = assay: Antimycobacterial broth dilution MIC; assay type: cell-based, Mycobacterium smegmatis
Method: as §1

[10] = tested on: Huvec-12, normal human umbilical vein endothelial cell line; assay: MTT cytotoxicity, normal cell line control; assay type: cell-based; conditions: Homo sapiens, Endothelial cell, Huvec-12 normal cell line
Method: as §2

[11] = tested on: L02, normal human hepatic cell line; assay: MTT cytotoxicity, normal cell line control; assay type: cell-based; conditions: Homo sapiens
Method: as §2

M. tuberculosis H37Rv = assay: Anti-TB broth dilution MIC; assay type: cell-based, Mycobacterium tuberculosis; conditions: Mycobacterium tuberculosis, H37RV, broth dilution, triplicate
[12] = Epimerization/interconversion of hemiaminal isomers followed by HPLC; assay type: physicochemical; conditions: non-aqueous solvents
Description: An interesting feature we identified during HPLC studies is that compounds 7 and 6 epimerize/interconvert in […] solvents (e.g., MeOH or CH3CN); this interconversion also was noted under neat conditions following periods of long-term storage. […] The possibility interchange of these two pairs of compounds was postulated (Supplementary Fig. 34B). […] It is indeed interesting to consider that cyclic hemiaminal installation in ilamycins C1, C2, E1, and E2 is likely reflective of a transient C33 aldehyde and that the αOH orientation is preferred; presumably this is driven to some extent by the fixed stereochemical orientations at C24 and C32 in each respective case (Fig. 3f). By virtue of this interconversion chemistry it is significant to note that assays carried out with these agents likely involved the use of isomeric mixtures of 6/7 and 3/4 and no one specific isomer.

[13] = Acinetobacter baumannii, ATCC19606
[14] = Mycolicibacterium smegmatis, MC^2155, read-out: MIC

SMILES | MIC [1, 13] | MIC [2] | MIC [3] | MIC ([4]; ATCC25922) | MIC (Micrococcus luteus SC-1; SC1) | IC50 [5] | IC50 [6] | IC50 [7] | IC50 [8] | IC50 [9] | MIC (MRSA shha-01) | MIC (M. smegmatis MC^2 155; [14]) | IC50 [10] | IC50 [11] | MIC (M. tuberculosis H37Rv; n = 3) | also measured
C=CC(C)(C)n1cc(C[C@@H]2NC(=O)[C@H](C/C=C/C)NC(=O)[C@H](CC(C)C)NC(=O)[C@H](CC(C)C)N(C)C(=O)[C@H](C)NC(=O)[C@H](Cc3ccc(O)c([N+](=O)[O-])c3)NC(=O)[C@H](CC(C)C)N(C)C2=O)c2ccccc21 [compound 1, ilamycin B1] (cyclo(A[NMeL]L[Gly(E-crotyl)][Trp(1-(1,1-Me2-allyl))][NMeL][Tyr(3-NO2)])) | 126 µM (≈ 128 µg/mL) | > 126 µM | > 126 µM | > 126 µM | > 126 µM | > 50 µM | > 50 µM | > 50 µM | > 50 µM | > 50 µM | > 126 µM | > 126 µM | > 50 µM | > 50 µM | 98.9 µM (≈ 100 µg/mL) | –
CO[C@H]1/C=C/O[C@@]2(C)Oc3c(C)c(O)c4c(O)c(c(/C=N/N5CCN(C)CC5)c(O)c4c3C2=O)NC(=O)/C(C)=C\C=C\[C@H](C)[C@H](O)[C@@H](C)[C@@H](O)[C@@H](C)[C@H](OC(C)=O)[C@@H]1C [Rif, Rifampin, reference compound] | – | – | – | – | – | – | – | – | – | – | – | – | – | – | – | MIC (M. tuberculosis H37Rv; n = 3, read-out: MIC): 0.3 µM (≈ 0.247 µg/mL)
CC=CCC1NC(=O)C(CC(C)C)NC(=O)C(CC(C)C)N(C)C(=O)C(C)NC(=O)C(Cc2ccc(O)c([N+](=O)[O-])c2)NC(=O)C(CC(C)C)N(C)C(=O)C(Cc2cn(C(C)(C)C3CO3)c3ccccc23)NC1=O (centres unmarked) [compound 2, ilamycin B2] (cyclo([ξNle(4,5-dehydro)][X1][NMeL][Tyr(3-NO2)]A[NMeL]L); configuration not given here) | 124 µM (≈ 128 µg/mL) | > 124 µM | > 124 µM | > 124 µM | > 124 µM | 13.8 µM | 17.4 µM | 7.1 µM | 8.9 µM | 24.5 µM | > 124 µM | > 124 µM | 18.6 µM | 24.6 µM | 2.4 µM (≈ 2.47 µg/mL) | –
NC[C@H]1O[C@H](O[C@H]2[C@H](O)[C@@H](O[C@H]3O[C@H](CO)[C@@H](O)[C@H](N)[C@H]3O)[C@H](N)C[C@@H]2N)[C@H](O)[C@@H](O)[C@@H]1O [Kanamycin, reference compound] | – | 0.85 µM (≈ 0.412 µg/mL) | – | – | – | – | – | – | – | – | – | – | – | – | – | MIC ([1]; Acinetobacter baumanii ATCC19606): 3.4 µM (≈ 1.65 µg/mL); MIC [4]: 1.7 µM (≈ 0.824 µg/mL); MIC (Micrococcus luteus SC-1): 0.85 µM (≈ 0.412 µg/mL); MIC (M. smegmatis MC^2 155): 1.7^a μM
COc1cccc2c1C(=O)c1c(O)c3c(c(O)c1C2=O)C[C@@](O)(C(=O)CO)C[C@@H]3O[C@H]1C[C@H](N)[C@H](O)[C@H](C)O1 [Dox, Doxorubicin, reference compound] | – | – | – | – | – | 3.4 µM | 3.4 µM | 0.98 µM | 1.2 µM | 3.6 µM | – | – | 34.3 µM | 13 µM | – | –
C=CC(C)(C)n1cc(C[C@@H]2NC(=O)[C@H](C/C=C/C)NC(=O)[C@H](CC(C)C)N3C(=O)[C@H](C[C@H](C)[C@H]3O)N(C)C(=O)[C@H](C)NC(=O)[C@H](Cc3ccc(O)c([N+](=O)[O-])c3)NC(=O)[C@H](CC(C)C)N(C)C2=O)c2ccccc21 [compound 6, ilamycin E1] | – | – | – | – | – | – | – | – | – | – | – | – | – | – | – | stability [12]: reasonably stable
